Data reported in US9777008B2, “PRMT5 inhibitors and uses thereof” (Epizyme, Inc., priority 2012, dated 2017).
pEC50, pIC50: −log10 of the molar value.

Molecular target: PRMT5/MEP50 (Homo sapiens (Human), UniProt O14744)
Assay: PRMT5 Biochemical Assay (PRMT5/MEP50 enzyme assay on peptide substrate, 3H-SAM Flashplate)
Details: not given
Source text: S-adenosylmethionine (SAM), S-adenosylhomocysteine (SAH), bicine, KCl, Tween20, dimethylsulfoxide (DMSO), bovine skin gelatin (BSG), and Tris(2-carboxyethyl)phosphine hydrochloride solution (TCEP) were purchased from Sigma-Aldrich at the highest level of purity possible. ^3H-SAM was purchase from American Radiolabeled Chemicals with a specific activity of 80 Ci/mmol. 384-well streptavidin Flashplates were purchased from PerkinElmer.
Peptide representative of human histone H4 residues 1-15 was synthesized with a C-terminal linker-affinity tag motif and a C-terminal amide cap by 21st Century Biochemicals. The peptide was high high-performance liquid chromatography (HPLC) purified to greater than 95% purity and confirmed by liquid chromatography mass spectrometry (LC-MS). The sequence was Ac-[…][K-Biot]-amide (SEQ ID NO.:3).
Molecular Biology: Full-length human PRMT5 (NM_006109.3) transcript variant 1 clone was amplified from a fetal brain cDNA library, incorporating flanking 5′ sequence encoding a FLAG tag ([…]) (SEQ ID NO.:4) fused directly to Ala 2 of PRMT5. Full-length human MEP50 (NM_024102) clone was amplified from a human testis cDNA library incorporating a 5′ sequence encoding a 6-histidine tag (MHHHHHH) (SEQ ID NO.:5) fused directly to Arg 2 of MEP50. The amplified genes were sublconed into pENTR/D/TEV (Life Technologies) and subsequently transferred by Gateway™ attL×attR recombination to pDEST8 baculvirus expression vector (Life Technologies).
Recombinant baculovirus and Baculovirus-Infected Insect Cells (BIIC) were generated according to Bac-to-Bac kit instructions (Life Technologies) and Wasilko, 2006, respectively. Protein over-expression was accomplished by infecting exponentially growing Spodoptera frugiperda (SF9) cell culture at 1.2×10^6 cell/ml with a 5000 fold dilution of BIIC stock. Infections were carried out at 27° C. for 72 hours, harvested by centrifugation, and stored at −80° C. for purification.
Flag-PRMT5/6His-MeP50 was eluted with 300 mM Imidazole in the same buffer. The purity of recovered protein was 87%. Reference: Wasilko, D. J. and S. E. Lee: “TIPS: titerless infected-cells preservation and scale-up” Bioprocess J., 5 (2006), pp. 29-32.
General Procedure for PRMT5/MEP50 Enzyme Assays on Peptide Substrates.
The assays were all performed in a buffer consisting of 20 mM Bicine (pH=7.6), 1 mM TCEP, 0.005% BSG, and 0.002% Tween20, prepared on the day of use. Compounds in 100% DMSO (1 ul) were spotted into a polypropylene 384-well V-bottom plates (Greiner) using a Platemate Plus outfitted with a 384-channel head (Thermo Scientific). DMSO (1 ul) was added to Columns 11, 12, 23, 24, rows A-H for the maximum signal control and 1 ul of SAH, a known product and inhibitor of PRMT5/MEP50, was added to columns 11, 12, 23, 24, rows I-P for the minimum signal control. A cocktail (40 ul) containing the PRMT5/MEP50 enzyme and the peptide was added by Multidrop Combi (Thermo-Fisher). The compounds were allowed to incubate with PRMT5/MEP50 for 30 min at 25 degrees Celsius, then a cocktail (10 ul) containing ^3H-SAM was added to initiate the reaction (final volume=51 ul). The final concentrations of the components were as follows: PRMT5/MEP50 was 4 nM, ^3H-SAM was 75 nM, peptide was 40 nM, SAH in the minimum signal control wells was 100 uM, and the DMSO concentration was 1%. The assays were stopped by the addition of non-radioactive SAM (10 ul) to a final concentration of 600 uM, which dilutes the ^3H-SAM to a level where its incorporation into the peptide substrate is no longer detectable. 50 ul of the reaction in the 384-well polypropylene plate was then transferred to a 384-well Flashplate and the biotinylated peptides were allowed to bind to the streptavidin surface for at least 1 hour before being washed three times with 0.1% Tween20 in a Biotek ELx405 plate washer. […]

PRMT5/MEP50, sequence (O14744 other isoform, or with tags, fused parts or gaps): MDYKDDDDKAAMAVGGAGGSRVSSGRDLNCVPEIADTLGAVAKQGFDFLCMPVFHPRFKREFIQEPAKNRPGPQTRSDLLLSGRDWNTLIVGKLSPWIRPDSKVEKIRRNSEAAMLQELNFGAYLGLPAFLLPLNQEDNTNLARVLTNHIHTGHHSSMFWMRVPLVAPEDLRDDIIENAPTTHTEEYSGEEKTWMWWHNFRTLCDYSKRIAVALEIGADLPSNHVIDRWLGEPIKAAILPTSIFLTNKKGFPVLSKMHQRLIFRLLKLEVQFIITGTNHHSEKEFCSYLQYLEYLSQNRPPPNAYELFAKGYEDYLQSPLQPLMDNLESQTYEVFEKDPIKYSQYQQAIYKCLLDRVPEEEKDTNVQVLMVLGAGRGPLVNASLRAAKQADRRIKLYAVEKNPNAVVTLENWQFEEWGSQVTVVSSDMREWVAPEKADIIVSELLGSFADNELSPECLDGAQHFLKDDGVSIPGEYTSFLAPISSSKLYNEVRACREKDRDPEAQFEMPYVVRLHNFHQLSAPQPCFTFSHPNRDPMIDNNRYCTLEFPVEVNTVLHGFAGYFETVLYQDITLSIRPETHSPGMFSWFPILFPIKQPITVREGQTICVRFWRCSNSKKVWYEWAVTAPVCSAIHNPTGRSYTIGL
PRMT5/MEP50, sequence (Q9BQA1 other isoform, or with tags, fused parts or gaps partner): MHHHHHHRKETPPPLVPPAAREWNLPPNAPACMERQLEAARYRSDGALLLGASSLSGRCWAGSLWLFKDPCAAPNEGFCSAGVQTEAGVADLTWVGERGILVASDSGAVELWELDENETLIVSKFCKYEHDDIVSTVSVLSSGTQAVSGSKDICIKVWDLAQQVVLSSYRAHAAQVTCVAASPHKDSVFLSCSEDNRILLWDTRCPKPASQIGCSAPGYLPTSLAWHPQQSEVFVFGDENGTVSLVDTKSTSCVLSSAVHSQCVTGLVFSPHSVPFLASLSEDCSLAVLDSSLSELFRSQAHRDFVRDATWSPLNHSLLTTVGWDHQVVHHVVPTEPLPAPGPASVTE

Compound	pIC50
O=C(Nc1cccc(OCC(O)CN2CCc3ccccc3C2)c1)c1cccnc1 (stereo not shown) [Compound 163]	5.00 to 6.00
Cc1ncc2ccc(-c3cccc(OCC(O)CN4CCc5ccccc5C4)c3)cn12 (stereo not shown) [Compound 266, 1-(3,4-dihydroisoquinolin-2(1H)-yl)-3-(3-(3-methylimidazo[1,5-a]pyridin-6-yl)phenoxy)propan-2-ol]	> 7.00
OC(COc1cccc(-c2ccc3ncn(C4COC4)c3c2)c1)CN1CCc2ccccc2C1 (stereo not shown) [Compound 269]	> 7.00
CC(=O)N(CC(O)CN1CCc2ccccc2C1)c1cccc(-c2ccc3ncn(C)c3c2)c1 (stereo not shown) [Compound 273, N-(3-(3,4-dihydroisoquinolin-2(1H)-yl)-2-hydroxypropyl)-N-(3-(1-methyl-1H-benzo[d]imidazol-6-yl)phenyl)acetamide]	> 7.00
Cn1cnc2ccc(-c3ccnc(NC[C@H](O)CN4CCc5ccccc5C4)c3)cc21 [Compound 275]	> 7.00
Cn1cnc2ccc(-c3ccnc(NC[C@@H](O)CN4CCc5ccccc5C4)c3)cc21 [Compound 276]	6.00 to 7.00
Cn1cnc2ccc(-c3cccc(OCC(O)CN4Cc5ccccc5C(F)(F)C4)c3)cc21 (stereo not shown) [Compound 277]	< 5.00
CN1CCCCC1COCC(O)CN1CCc2ccccc2C1 (stereo not shown) [Compound 289]	< 4.40
CN1CCC(OCC(O)CN2CCc3ccccc3C2)CC1 (stereo not shown) [Compound 293]	< 4.40
CCn1ccnc1COCC(O)CN1CCc2ccccc2C1 (stereo not shown) [Compound 295]	< 4.40
OC(COC1CCCNC1)CN1CCc2ccccc2C1 (stereo not shown) [Compound 297]	< 4.40
OC(COC1CCNCC1)CN1CCc2ccccc2C1 (stereo not shown) [Compound 298]	< 4.40
OC(COCC1CCCCO1)CN1CCc2ccccc2C1 (stereo not shown) [Compound 304]	< 4.40
OC(COC1CCNC1)CN1CCc2ccccc2C1 (stereo not shown) [Compound 306]	< 4.40
CN1CCC(OCC(O)CN2CCc3ccccc3C2)C1 (stereo not shown) [Compound 307]	< 4.40

System: symmetric di-methyl arginine in Z-138 cells
Assay: Z-138 Methylation Assay (In Cell Western for symmetric di-methyl arginine and DNA content)
Type: cell-based
Details: Homo sapiens, read-out: ICW EC50
Source text: [formula] [formula] Where top and bottom are the normally allowed to float, but may be fixed at 100 or 0 respectively in a 3-parameter fit. The Hill Coefficient normally allowed to float but may also be fixed at 1 in a 3-parameter fit. Y is the % inhibition and X is the compound concentration. Z-138 Methylation Assay
Z-138 suspension cells were purchased from ATCC (American Type Culture Collection, Manassas, Va.). RPMI/Glutamax medium, penicillin-streptomycin, heat inactivated fetal bovine serum, and D-PBS were purchased from Life Technologies, Grand Island, N.Y., USA. Odyssey blocking buffer, 800CW goat anti-rabbit IgG (H+L) antibody, and Licor Odyssey infrared scanner were purchased from Licor Biosciences, Lincoln, Nebr., USA. Symmetric di-methyl arginine antibody was purchased from EMD Millipore, Billerica, Mass., USA. 16% Paraformaldehyde was purchased from Electron Microscopy Sciences, Hatfield, Pa., USA. Z-138 suspension cells were maintained in growth medium (RPMI 1640 supplemented with 10% v/v heat inactivated fetal bovine serum and 100 units/mL penicillin-streptomycin) and cultured at 37° C. under 5% CO2.
Cell Treatment, in Cell Western (ICW) for Detection of Symmetric Di-Methyl Arginine and DNA Content.
Z-138 cells were seeded in assay medium at a concentration of 50,000 cells per mL to a 384-well cell culture plate with 50 μL per well. Compound (100 nL) from 384 well source plates was added directly to 384 well cell plate. Plates were incubated at 37° C., 5% CO2 for 96 hours. […]
First, the ratio for each well was determined by:
Each plate included fourteen control wells of DMSO only treatment (minimum inhibition) as well as fourteen control wells for maximum inhibition treated with 3 μM of a reference compound (Background wells). The average of the ratio values for each control type was calculated and used to determine the percent inhibition for each test well in the plate. […] Percent inhibition was determined and IC50 curves were generated using triplicate wells per concentration of compound. […]

Compound	pEC50
O=C(Nc1cccc(OCC(O)CN2CCc3ccccc3C2)c1)c1cccnc1 (stereo not shown) [Compound 163]	5.00 to 6.00
